# Reference: patent US9738697B2 (Wisconsin Alumni Research Foundation, priority 2013, dated 2017)
# “Also recorded” adds a separate entry of the source.
# Columns and labels:
# [1] = test system: dipeptidyl peptidase-4 (DPP-4); conditions: cited from earlier work
# neprilysin (NEP 24.11) = conditions: cited from earlier work
# DPP-4 [2] = assay: DPP-4 (EMD Biosciences; catalog #317640) in TBS buffer, pH 8.0; conditions: 37° C., up to seven (7) days
# neprilysin = biological target: T1, neprilysin (Homo sapiens, UniProt P08473); assay: Protease assay with neprilysin (HPLC); format: in vitro ADME; conditions: 40 μg/mL neprilysin
# T1 construct: purchased Reprokine; Ltd. RKP08473
# T1 sequence (P08473 whole entry): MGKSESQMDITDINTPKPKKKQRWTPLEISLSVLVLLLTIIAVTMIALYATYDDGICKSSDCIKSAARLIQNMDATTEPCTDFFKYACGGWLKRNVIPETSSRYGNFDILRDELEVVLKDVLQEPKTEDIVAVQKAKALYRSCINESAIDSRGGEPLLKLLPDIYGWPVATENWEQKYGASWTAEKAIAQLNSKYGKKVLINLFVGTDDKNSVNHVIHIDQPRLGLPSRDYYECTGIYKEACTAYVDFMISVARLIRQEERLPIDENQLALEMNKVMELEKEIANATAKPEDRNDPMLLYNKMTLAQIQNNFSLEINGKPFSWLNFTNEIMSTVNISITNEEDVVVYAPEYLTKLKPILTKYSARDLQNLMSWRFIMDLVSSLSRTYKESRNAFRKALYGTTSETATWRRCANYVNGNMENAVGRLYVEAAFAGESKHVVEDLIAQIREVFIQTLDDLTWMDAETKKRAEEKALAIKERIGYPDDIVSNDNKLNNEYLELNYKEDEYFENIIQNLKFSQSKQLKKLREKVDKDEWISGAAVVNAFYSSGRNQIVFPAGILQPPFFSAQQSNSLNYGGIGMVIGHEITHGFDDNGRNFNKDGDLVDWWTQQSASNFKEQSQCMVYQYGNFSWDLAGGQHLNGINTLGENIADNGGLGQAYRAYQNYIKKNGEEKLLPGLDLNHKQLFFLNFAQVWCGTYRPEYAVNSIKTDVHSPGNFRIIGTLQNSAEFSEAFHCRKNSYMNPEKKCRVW
# Method: An HPLC method from the literature was used to assess protease action on selected compounds.^29,31 Two nmol of solid peptide was dissolved in 40 μL of TBS pH 8.0 (resulting concentration of peptide=40 μM) before protease was added. Chymotrypsin was purchased from Promega (Fitchburg, Wis.; catalog #V1062), and neprilysin was purchased from Reprokine. Ltd. (Valley Cottage, N.Y.; catalog #RKP08473); stock solutions of 250 μg/mL chymotrypsin and 200 μg/mL neprilysin in water were prepared. A 10 μL aliquot of protease stock solution was added to 40 μL of 40 μM peptide solution to begin the reaction. Periodically, a 10 μL aliquot of the solution was removed, and protease action was halted by adding this aliquot to 100 μL of 1% aqueous TFA solution. […] The time course of peptide degradation was experimentally determined by integrating the area of each peak in a series of HPLC traces. The area percent of parent peptide (relative to the initial trace) was calculated for each trace and plotted in GraphPad Prism as an exponential decay to determine half-life values.
# Major backbone cut sites, as determined by MALDI-TOF-MS, are indicated with double front slashes.
# DPP-4 [3] = biological target: T2, DPP-4 (Homo sapiens, UniProt P27487); assay: Protease assay with DPP-4 (HPLC); format: in vitro ADME; conditions: TBS pH 8.0, 37° C.
# T2 construct: purchased EMD Biosciences 317640
# T2 sequence (P27487 whole entry): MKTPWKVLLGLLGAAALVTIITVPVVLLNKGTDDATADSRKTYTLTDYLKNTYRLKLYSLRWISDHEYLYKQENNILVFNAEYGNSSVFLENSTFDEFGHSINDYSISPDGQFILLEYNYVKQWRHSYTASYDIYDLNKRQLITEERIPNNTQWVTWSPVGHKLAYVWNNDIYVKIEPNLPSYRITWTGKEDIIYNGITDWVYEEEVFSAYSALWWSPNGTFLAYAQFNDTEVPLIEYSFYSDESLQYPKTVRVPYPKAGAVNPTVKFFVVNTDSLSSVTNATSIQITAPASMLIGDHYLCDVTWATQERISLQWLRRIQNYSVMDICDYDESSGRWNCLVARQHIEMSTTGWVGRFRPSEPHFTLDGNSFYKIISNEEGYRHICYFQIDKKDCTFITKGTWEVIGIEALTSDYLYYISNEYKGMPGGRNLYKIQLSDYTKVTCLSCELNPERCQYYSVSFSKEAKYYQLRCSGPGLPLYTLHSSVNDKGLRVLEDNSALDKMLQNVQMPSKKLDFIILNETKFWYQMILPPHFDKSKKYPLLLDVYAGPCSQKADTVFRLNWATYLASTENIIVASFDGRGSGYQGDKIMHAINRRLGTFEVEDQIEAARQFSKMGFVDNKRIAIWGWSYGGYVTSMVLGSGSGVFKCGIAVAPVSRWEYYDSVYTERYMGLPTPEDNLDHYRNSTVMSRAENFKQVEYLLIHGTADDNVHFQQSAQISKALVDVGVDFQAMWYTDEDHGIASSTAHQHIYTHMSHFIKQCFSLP
# chymotrypsin [4] = biological target: T3, chymotrypsin (Bos taurus, UniProt P00766); assay: Protease assay with chymotrypsin (HPLC); format: in vitro ADME; conditions: 50 μg/mL chymotrypsin
# T3 construct: purchased Promega V1062
# Method: (§1) An HPLC method from the literature was used to assess protease action on selected compounds.^29,31 Two nmol of solid peptide was dissolved in 40 μL of TBS pH 8.0 (resulting concentration of peptide=40 μM) before protease was added. Chymotrypsin was purchased from Promega (Fitchburg, Wis.; catalog #V1062), and neprilysin was purchased from Reprokine. Ltd. (Valley Cottage, N.Y.; catalog #RKP08473); stock solutions of 250 μg/mL chymotrypsin and 200 μg/mL neprilysin in water were prepared. A 10 μL aliquot of protease stock solution was added to 40 μL of 40 μM peptide solution to begin the reaction. Periodically, a 10 μL aliquot of the solution was removed, and protease action was halted by adding this aliquot to 100 μL of 1% aqueous TFA solution. A portion (100 μL) of the quenched solution was injected onto an HPLC column using the conditions described under “Peptide Synthesis”, and peaks were analyzed using MALDI-TOF MS. The time course of peptide degradation was experimentally determined by integrating the area of each peak in a series of HPLC traces. The area percent of parent peptide (relative to the initial trace) was calculated for each trace and plotted in GraphPad Prism as an exponential decay to determine half-life values.
# (§2) ID. […] Major backbone cut sites are indicated with double front slashes. […] Digestion occurs at three major cleavage sites. […] ID. NO: 7 with 50 μg/mL chymotrypsin in TBS pH 8.0 at room temperature. […] ID. NO: 9 with 50 μg/mL chymotrypsin in TBS pH 8.0 at room temperature. This peptide has seven substitutions, α→Aib.
# chymotrypsin [5] = test system: T4, chymotrypsin; assay: Protease assay with chymotrypsin (HPLC); format: in vitro ADME; conditions: chymotrypsin (50 μg/mL) in TBS, 50 μg/mL chymotrypsin, TBS pH 8.0, room temperature
# T4 construct: purchased Promega V1062
# Method: as §1, §2
# human GLP-1 receptor = human GLP-1 receptor (Homo sapiens, UniProt P43220); assay: GLP-1R activation monitored by cAMP production in HEK293 cells
# human GLP-1 receptor, sequence (P43220 24-463): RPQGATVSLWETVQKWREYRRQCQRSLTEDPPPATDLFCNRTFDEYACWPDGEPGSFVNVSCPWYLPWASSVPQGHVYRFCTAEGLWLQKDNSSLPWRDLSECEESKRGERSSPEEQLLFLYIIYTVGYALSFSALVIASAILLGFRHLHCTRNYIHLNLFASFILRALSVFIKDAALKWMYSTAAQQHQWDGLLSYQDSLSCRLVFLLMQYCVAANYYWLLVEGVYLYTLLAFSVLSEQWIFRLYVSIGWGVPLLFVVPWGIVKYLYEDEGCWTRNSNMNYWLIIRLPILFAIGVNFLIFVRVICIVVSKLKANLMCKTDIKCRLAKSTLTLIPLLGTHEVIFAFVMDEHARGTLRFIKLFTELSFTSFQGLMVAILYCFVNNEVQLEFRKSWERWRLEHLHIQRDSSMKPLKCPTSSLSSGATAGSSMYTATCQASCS
# C57BL/6J mice = assay: Glucose tolerance test (GTT) in mice; format: in vivo, mouse
# Method: ID. NO: 7 was administered to mice by interperitoneal (i.p.) injection at a 1 mg/kg dose, or lower for SEQ. ID. NO: 7, using an injection volume of 10 mL/kg body mass. Each peptide was first dissolved in prefiltered DMSO at 10 mg/mL concentration, then diluted >20-fold with TBS buffer, pH 7.4 (final DMSO conc.=<5%). Glucose was administered by i.p. injection with a sterile-filtered 30% D-glucose-saline solution at a 1.5 g/kg dose using a 5 mL/kg injection volume.
# Thirteen-week-old male C57BL/6J mice (The Jackson Laboratory) (n=4) were fasted overnight on wood chip bedding for 15 hours prior to the experiment. Blood glucose levels were monitored from a tail tip bleed using an ACCU-CHEK®-brand blood glucose meter (Roche Diagnostics, Indianapolis, Ind.). Fasting glucose levels were measured at 75 minutes prior to the glucose injection (t=−75 min), and the compound injection was performed 60 minutes prior to the glucose injection (t=−60 min). Glucose levels were measured immediately prior to the glucose injection (t=0 min) to assess any changes in the baseline glucose caused by peptide administration. Blood glucose levels were monitored at 30, 60, 90, and 120 minutes after injection of glucose.
# Five hours after peptide injection, the mice received a second injection of 1.5 g/kg glucose. Blood glucose was monitored at 30 min after this second glucose injection. Mice were sacrificed by CO2 inhalation at the conclusion of the GTT.
molecule,measurement,setting,value
H-HAEGTFTSDVSSYLEGQAAKEFIAWLVKGRG-NH2,cleaved bond,[1],cleaves after Ala8
same,cleaved bond,neprilysin (NEP 24.11),Asp15-Val16; also recorded: cleaves after Ser18; also recorded: cleaves after Tyr19; also recorded: cleaves after Glu27; also recorded: cleaves after Phe28; also recorded: cleaves after Trp31
H-HAEGTFTSDASXYLEXQAAXEFIXWLVZGRG-NH2,not cleaved,DPP-4 [2],no cleavage was detected during seven (7) days
CC[C@H](C)[C@H](NC(=O)[C@H](Cc1ccccc1)NC(=O)[C@H](CCC(=O)O)NC(=O)[C@H]1CCC[C@@H]1NC(=O)[C@H](C)NC(=O)[C@H](C)NC(=O)[C@H](CCC(N)=O)NC(=O)[C@H]1CCC[C@@H]1NC(=O)[C@H](CCC(=O)O)NC(=O)[C@H](CC(C)C)NC(=O)[C@H](Cc1ccc(O)cc1)NC(=O)[C@H]1CCC[C@@H]1NC(=O)[C@H](CO)NC(=O)C(C)(C)NC(=O)[C@H](CC(=O)O)NC(=O)[C@H](CO)NC(=O)[C@@H](NC(=O)[C@H](Cc1ccccc1)NC(=O)[C@@H](NC(=O)CNC(=O)[C@H](CCC(=O)O)NC(=O)C(C)(C)NC(=O)[C@@H](N)Cc1c[nH]cn1)[C@@H](C)O)[C@@H](C)O)C(=O)N[C@H]1CCC[C@@H]1C(=O)N[C@@H](Cc1c[nH]c2ccccc12)C(=O)N[C@@H](CC(C)C)C(=O)N[C@H](C(=O)N[C@H]1CNC[C@@H]1C(=O)NCC(=O)N[C@@H](CCCNC(=N)N)C(=O)NCC(N)=O)C(C)C [SEQ. ID. NO: 7],t1/2 with neprilysin relative to native GLP-1 peptide,neprilysin,more than 100 times
same,cleavage by DPP-4 over seven days (in words),DPP-4 [3]; monitored seven days,no cleavage was detected
same,half-life,"chymotrypsin [4]; 40 μM peptide, TBS pH 8.0, room temperature, read-out: t1/2 with chymotrypsin (converted)",12.5 min
same,"remaining at 25 min, 40 μM","chymotrypsin [5]; 1500 seconds, read-out: peptide remaining after 1500 seconds",> 25%
same,Max Response (% GLP-1 max),"human GLP-1 receptor; HEK293 cells, cAMP production",88 % GLP-1 max
same,"cAMP production, AVERAGES at M Concentrations −7",human GLP-1 receptor; peptide concentration −7 (log M),88.32
same,"cAMP production, AVERAGES at M Concentrations −8",human GLP-1 receptor; peptide concentration −8 (log M),63.0221
same,"cAMP production, AVERAGES at M Concentrations −9",human GLP-1 receptor; peptide concentration −9 (log M),35
same,"cAMP production, AVERAGES at M Concentrations −10",human GLP-1 receptor; peptide concentration −10 (log M),4.469
same,"cAMP production, AVERAGES at M Concentrations −11",human GLP-1 receptor; peptide concentration −11 (log M),3.504
same,"cAMP production, AVERAGES at M Concentrations −12",human GLP-1 receptor; peptide concentration −12 (log M),2.813
same,"cAMP production, AVERAGES at M Concentrations −13",human GLP-1 receptor; peptide concentration −13 (log M),3.831
CC[C@H](C)[C@H](NC(=O)[C@H](Cc1ccccc1)NC(=O)[C@H](CCC(=O)O)NC(=O)[C@H](CCCCN)NC(=O)[C@H](C)NC(=O)[C@H](C)NC(=O)[C@H](CCC(N)=O)NC(=O)CNC(=O)[C@H](CCC(=O)O)NC(=O)[C@H](CC(C)C)NC(=O)[C@H](Cc1ccc(O)cc1)NC(=O)[C@H](CO)NC(=O)[C@H](CO)NC(=O)[C@@H](NC(=O)[C@H](CC(=O)O)NC(=O)[C@H](CO)NC(=O)[C@@H](NC(=O)[C@H](Cc1ccccc1)NC(=O)[C@@H](NC(=O)CNC(=O)[C@H](CCC(=O)O)NC(=O)[C@H](C)NC(=O)[C@@H](N)Cc1c[nH]cn1)[C@@H](C)O)[C@@H](C)O)C(C)C)C(=O)N[C@@H](C)C(=O)N[C@@H](Cc1c[nH]c2ccccc12)C(=O)N[C@@H](CC(C)C)C(=O)N[C@H](C(=O)N[C@@H](CCCCN)C(=O)NCC(=O)N[C@@H](CCCNC(=N)N)C(=O)NCC(N)=O)C(C)C [SEQ. ID. NO: 1],"number of major cleavage sites, neprilysin",neprilysin; MALDI-TOF-MS,five
same,half-life at 40 μM,"neprilysin; neprilysin (isolated protease), pH 8, 40 μM peptide, TBS pH 8.0, room temperature, read-out: half-life (t1/2) with neprilysin (converted)",19.8 min
same,Average Blood Glucose Level,"C57BL/6J mice; 1 mg/kg i.p., time 0.0 min",81.8 mg/dL
same,Average Blood Glucose Level,"C57BL/6J mice; 1 mg/kg i.p., time 30.0 min",132.8 mg/dL
same,Average Blood Glucose Level,"C57BL/6J mice; 1 mg/kg i.p., time 60.0 min",99.3 mg/dL
same,Average Blood Glucose Level,"C57BL/6J mice; 1 mg/kg i.p., time 90.0 min",74.8 mg/dL
same,Average Blood Glucose Level,"C57BL/6J mice; 1 mg/kg i.p., time 120.0 min",86.0 mg/dL
same,Average Blood Glucose Level,"C57BL/6J mice; 1 mg/kg i.p., time −60.0 min (peptide injection)",108.0 mg/dL
same,Average Blood Glucose Level at 30 min (column head AUC),"C57BL/6J mice; 1 mg/kg i.p., Table 7, 30 min after second glucose injection given five hours after peptide",250.5
same,glucose-lowering effect in GTT repeated 5 hours after agonist administration (in words),"C57BL/6J mice; 1 mg/kg, 30 min after the second glucose challenge",no significant difference
same,half-life at 40 μM,DPP-4 [3]; DPP-4 (isolated protease),13.5 min
same,"number of major cleavage sites, chymotrypsin",chymotrypsin [4]; MALDI-TOF-MS,three
same,half-life at 40 μM,"chymotrypsin [4]; chymotrypsin (isolated protease), 40 μM peptide, TBS pH 8.0, room temperature, read-out: t1/2 with chymotrypsin (converted)",0.317 min
same,"remaining at 1 min, 40 μM","chymotrypsin [5]; 60 seconds, read-out: peptide remaining after 60 seconds of digestion",< 25%
